Data taken from the supplement of paper PMC10307832.

What was measured:
Test in all cases: relative viability (nuclei count vs DMSO), 5 days (fraction); higher = more cells survive
201T = tested on: 201T
Method in brief: (§1)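 Lung cancer cell lines in 1536-well plates got either a single drug or a fixed anchor-drug dose together with five library-drug doses (not always all listed) in √10 steps, by pin tool, on the day after seeding. Nuclei were counted after 5 days, and relative viability is the treated-to-vehicle ratio of nuclei counts. Values are medians of duplicate plates.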

BEN = tested on: BEN
Method in brief: as §1

COR-L 105 = tested on: COR-L 105
Method in brief: as §1

COR-L23 = tested on: COR-L23
Method in brief: as §1

EKVX = tested on: EKVX
Method in brief: as §1

HARA = tested on: HARA
Method in brief: as §1

HCC-15 = tested on: HCC-15
Method in brief: as §1

HCC-366 = tested on: HCC-366
Method in brief: as §1

HCC-78 = tested on: HCC-78
Method in brief: as §1

HCC-827 = tested on: HCC-827
Method in brief: as §1

LC-2-ad = tested on: LC-2-ad
Method in brief: as §1

LU99A = tested on: LU99A
Method in brief: as §1

LXF-289 = tested on: LXF-289
Method in brief: as §1

NCI-H1734 = tested on: NCI-H1734
Method in brief: as §1

NCI-H1755 = tested on: NCI-H1755
Method in brief: as §1

NCI-H1944 = tested on: NCI-H1944
Method in brief: as §1

NCI-H1975 = tested on: NCI-H1975
Method in brief: as §1

NCI-H1993 = tested on: NCI-H1993
Method in brief: as §1

NCI-H3122 = tested on: NCI-H3122
Method in brief: as §1

NCI-H596 = tested on: NCI-H596
Method in brief: as §1

RERF-LC-KJ = tested on: RERF-LC-KJ
Method in brief: as §1

SK-LU-1 = tested on: SK-LU-1
Method in brief: as §1

SMILES: O=c1[nH]c2ccccc2n1C1CCN(CCCC(c2ccc(F)cc2)c2ccc(F)cc2)CC1 [Pimozide] + C[C@]1(O)C[C@@H](c2nc(-c3ccc4ccc(-c5ccccc5)nc4c3)c3c(N)nccn32)C1 [Linsitinib] (partner 1 µM)
- relative viability (201T; first compound 0.08 µM): 1
- relative viability (201T; first compound 0.253 µM): 1.01
- relative viability (201T; first compound 0.8 µM): 1
- relative viability (201T; first compound 2.53 µM): 1.05
- relative viability (201T; first compound 8 µM): 0.884
- relative viability (BEN; first compound 0.08 µM): 1.07
- relative viability (BEN; first compound 0.253 µM): 1.02
- relative viability (BEN; first compound 0.8 µM): 0.856
- relative viability (BEN; first compound 2.53 µM): 0.88
- relative viability (BEN; first compound 8 µM): 0.892
- relative viability (COR-L 105; first compound 0.253 µM): 1.01
- relative viability (COR-L 105; first compound 0.8 µM): 0.795
- relative viability (COR-L 105; first compound 2.53 µM): 0.844
- relative viability (COR-L 105; first compound 8 µM): 0.562
- relative viability (COR-L23; first compound 0.08 µM): 0.956
- relative viability (COR-L23; first compound 0.253 µM): 0.76
- relative viability (COR-L23; first compound 0.8 µM): 0.832
- relative viability (COR-L23; first compound 2.53 µM): 0.887
- relative viability (COR-L23; first compound 8 µM): 0.84
- relative viability (EKVX; first compound 0.253 µM): 0.837
- relative viability (EKVX; first compound 0.8 µM): 0.901
- relative viability (EKVX; first compound 2.53 µM): 0.969
- relative viability (EKVX; first compound 8 µM): 0.953
- relative viability (HARA; first compound 0.08 µM): 0.944
- relative viability (HARA; first compound 0.253 µM): 0.981
- relative viability (HARA; first compound 0.8 µM): 0.823
- relative viability (HARA; first compound 2.53 µM): 0.92
- relative viability (HARA; first compound 8 µM): 0.748
- relative viability (HCC-15; first compound 0.08 µM): 0.91
- relative viability (HCC-15; first compound 0.253 µM): 0.911
- relative viability (HCC-15; first compound 0.8 µM): 0.847
- relative viability (HCC-15; first compound 2.53 µM): 0.744
- relative viability (HCC-15; first compound 8 µM): 0.796
- relative viability (HCC-366; first compound 0.08 µM): 0.747
- relative viability (HCC-366; first compound 0.253 µM): 0.67
- relative viability (HCC-366; first compound 0.8 µM): 0.7
- relative viability (HCC-366; first compound 2.53 µM): 0.754
- relative viability (HCC-366; first compound 8 µM): 0.677
- relative viability (HCC-78; first compound 0.08 µM): 0.531
- relative viability (HCC-78; first compound 0.253 µM): 0.469
- relative viability (HCC-78; first compound 0.8 µM): 0.549
- relative viability (HCC-78; first compound 2.53 µM): 0.46
- relative viability (HCC-78; first compound 8 µM): 0.536
- relative viability (HCC-827; first compound 0.253 µM): 0.986
- relative viability (HCC-827; first compound 0.8 µM): 0.915
- relative viability (HCC-827; first compound 2.53 µM): 0.944
- relative viability (HCC-827; first compound 8 µM): 0.939
- relative viability (LC-2-ad; first compound 0.08 µM): 0.818
- relative viability (LC-2-ad; first compound 0.253 µM): 0.819
- relative viability (LC-2-ad; first compound 0.8 µM): 0.797
- relative viability (LC-2-ad; first compound 2.53 µM): 0.891
- relative viability (LC-2-ad; first compound 8 µM): 0.746
- relative viability (LU99A; first compound 0.08 µM): 0.544
- relative viability (LU99A; first compound 0.253 µM): 0.409
- relative viability (LU99A; first compound 0.8 µM): 0.514
- relative viability (LU99A; first compound 2.53 µM): 0.596
- relative viability (LU99A; first compound 8 µM): 0.504
- relative viability (LXF-289; first compound 0.08 µM): 0.928
- relative viability (LXF-289; first compound 0.253 µM): 0.902
- relative viability (LXF-289; first compound 0.8 µM): 0.964
- relative viability (LXF-289; first compound 2.53 µM): 0.946
- relative viability (LXF-289; first compound 8 µM): 0.886
- relative viability (NCI-H1734; first compound 0.08 µM): 0.88
- relative viability (NCI-H1734; first compound 0.253 µM): 0.829
- relative viability (NCI-H1734; first compound 0.8 µM): 0.878
- relative viability (NCI-H1734; first compound 2.53 µM): 0.944
- relative viability (NCI-H1734; first compound 8 µM): 0.972
- relative viability (NCI-H1755; first compound 0.08 µM): 0.94
- relative viability (NCI-H1755; first compound 0.253 µM): 1.02
- relative viability (NCI-H1755; first compound 0.8 µM): 0.97
- relative viability (NCI-H1755; first compound 2.53 µM): 0.939
- relative viability (NCI-H1755; first compound 8 µM): 0.845
- relative viability (NCI-H1944; first compound 0.08 µM): 1.02
- relative viability (NCI-H1944; first compound 0.253 µM): 1.07
- relative viability (NCI-H1944; first compound 0.8 µM): 1.05
- relative viability (NCI-H1944; first compound 2.53 µM): 1.3
- relative viability (NCI-H1944; first compound 8 µM): 1.22
- relative viability (NCI-H1975; first compound 0.08 µM): 0.95
- relative viability (NCI-H1975; first compound 0.253 µM): 1.04
- relative viability (NCI-H1975; first compound 0.8 µM): 0.964
- relative viability (NCI-H1975; first compound 2.53 µM): 0.926
- relative viability (NCI-H1975; first compound 8 µM): 0.741
- relative viability (NCI-H1993; first compound 0.08 µM): 0.662
- relative viability (NCI-H1993; first compound 0.253 µM): 0.659
- relative viability (NCI-H1993; first compound 0.8 µM): 0.571
- relative viability (NCI-H1993; first compound 2.53 µM): 0.725
- relative viability (NCI-H1993; first compound 8 µM): 0.755
- relative viability (NCI-H3122; first compound 0.08 µM): 1.01
- relative viability (NCI-H3122; first compound 0.253 µM): 1.06
- relative viability (NCI-H3122; first compound 0.8 µM): 1
- relative viability (NCI-H3122; first compound 2.53 µM): 1.05
- relative viability (NCI-H3122; first compound 8 µM): 1.06
- relative viability (NCI-H596; first compound 0.08 µM): 1.16
- relative viability (NCI-H596; first compound 0.253 µM): 1.12
- relative viability (NCI-H596; first compound 0.8 µM): 1.04
- relative viability (NCI-H596; first compound 2.53 µM): 0.895
- relative viability (NCI-H596; first compound 8 µM): 0.998
- relative viability (RERF-LC-KJ; first compound 0.08 µM): 0.885
- relative viability (RERF-LC-KJ; first compound 0.253 µM): 0.813
- relative viability (RERF-LC-KJ; first compound 0.8 µM): 0.787
- relative viability (RERF-LC-KJ; first compound 2.53 µM): 0.842
- relative viability (RERF-LC-KJ; first compound 8 µM): 0.8
- relative viability (SK-LU-1; first compound 0.08 µM): 1.11
- relative viability (SK-LU-1; first compound 0.253 µM): 1.12
- relative viability (SK-LU-1; first compound 0.8 µM): 0.902
- relative viability (SK-LU-1; first compound 2.53 µM): 0.732
- relative viability (SK-LU-1; first compound 8 µM): 0.851
